# Results from article PMC6979384, “Characterization of the plant homeodomain (PHD) reader family for their histone tail interactions” (Epigenetics & Chromatin, 2020).
# Legend:
# Experiment in all cases: Histone peptide microarray
# Assay type in all cases: binding, human
# AIRE (PP) = conditions: sheet "Array Heatmap"; GST-tagged AIRE (PP); arrays performed twice, total replicate number n = 4
# Outline: (§1)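 GST-PHD reader, 0.5 μM, probed on 293-peptide histone array (single/combinatorial PTMs); optimized array protocol; signal = mean ± SD, n = 4.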
# BAZ2B = conditions: sheet "Array Heatmap"; GST-tagged BAZ2B; arrays performed twice, total replicate number n = 4
# Outline: as §1
# BPTF (PB) = conditions: sheet "Array Heatmap"; GST-tagged BPTF (PB); arrays performed twice, total replicate number n = 4
# Outline: as §1
# CHD4 (PPCC) = conditions: sheet "Array Heatmap"; GST-tagged CHD4 (PPCC); arrays performed twice, total replicate number n = 4
# Outline: as §1
# CHD5 (PCC) = conditions: sheet "Array Heatmap"; GST-tagged CHD5 (PCC); arrays performed twice, total replicate number n = 4
# Outline: as §1
# CHD5 (PPCC) = conditions: sheet "Array Heatmap"; GST-tagged CHD5 (PPCC); arrays performed twice, total replicate number n = 4
# Outline: as §1
# DIDO1 = conditions: sheet "Array Heatmap"; GST-tagged DIDO1; arrays performed twice, total replicate number n = 4
# Outline: as §1
# DPF2 (PPC2W2) = conditions: sheet "Array Heatmap"; GST-tagged DPF2 (PPC2W2); arrays performed twice, total replicate number n = 4
# Outline: as §1
# ING1 = conditions: sheet "Array Heatmap"; GST-tagged ING1; arrays performed twice, total replicate number n = 4
# Outline: as §1
# ING2 = conditions: sheet "Array Heatmap"; GST-tagged ING2; arrays performed twice, total replicate number n = 4
# Outline: as §1
# ING3 = conditions: sheet "Array Heatmap"; GST-tagged ING3; arrays performed twice, total replicate number n = 4
# Outline: as §1
# ING4 = conditions: sheet "Array Heatmap"; GST-tagged ING4; arrays performed twice, total replicate number n = 4
# Outline: as §1
# ING5 = conditions: sheet "Array Heatmap"; GST-tagged ING5; arrays performed twice, total replicate number n = 4
# Outline: as §1
# KDM4C (TTP) = conditions: sheet "Array Heatmap"; GST-tagged KDM4C (TTP); arrays performed twice, total replicate number n = 4
# Outline: as §1
# KDM5A (1) = conditions: sheet "Array Heatmap"; GST-tagged KDM5A (1); arrays performed twice, total replicate number n = 4
# Outline: as §1
# KDM5A (3) = conditions: sheet "Array Heatmap"; GST-tagged KDM5A (3); arrays performed twice, total replicate number n = 4
# Outline: as §1
# KDM5B (1) = conditions: sheet "Array Heatmap"; GST-tagged KDM5B (1); arrays performed twice, total replicate number n = 4
# Outline: as §1
# KDM5B (3) = conditions: sheet "Array Heatmap"; GST-tagged KDM5B (3); arrays performed twice, total replicate number n = 4
# Outline: as §1
# KDM7A = conditions: sheet "Array Heatmap"; GST-tagged KDM7A; arrays performed twice, total replicate number n = 4
# Outline: as §1
# MLL5 = conditions: sheet "Array Heatmap"; GST-tagged MLL5; arrays performed twice, total replicate number n = 4
# Outline: as §1
# MORC3 (CW) = conditions: sheet "Array Heatmap"; GST-tagged MORC3 (CW); arrays performed twice, total replicate number n = 4
# Outline: as §1
# PHF13 = conditions: sheet "Array Heatmap"; GST-tagged PHF13; arrays performed twice, total replicate number n = 4
# Outline: as §1
# PHF21A = conditions: sheet "Array Heatmap"; GST-tagged PHF21A; arrays performed twice, total replicate number n = 4
# Outline: as §1
# PHF23 = conditions: sheet "Array Heatmap"; GST-tagged PHF23; arrays performed twice, total replicate number n = 4
# Outline: as §1
# PHF2 = conditions: sheet "Array Heatmap"; GST-tagged PHF2; arrays performed twice, total replicate number n = 4
# Outline: as §1
# PHF8 = conditions: sheet "Array Heatmap"; GST-tagged PHF8; arrays performed twice, total replicate number n = 4
# Outline: as §1
# PHRF1 (RP) = conditions: sheet "Array Heatmap"; GST-tagged PHRF1 (RP); arrays performed twice, total replicate number n = 4
# Outline: as §1
# RAG2 = conditions: sheet "Array Heatmap"; GST-tagged RAG2; arrays performed twice, total replicate number n = 4
# Outline: as §1
# SP140L = conditions: sheet "Array Heatmap"; GST-tagged SP140L; arrays performed twice, total replicate number n = 4
# Outline: as §1
# TAF3 = conditions: sheet "Array Heatmap"; GST-tagged TAF3; arrays performed twice, total replicate number n = 4
# Outline: as §1
# TRIM66 (PB) = conditions: sheet "Array Heatmap"; GST-tagged TRIM66 (PB); arrays performed twice, total replicate number n = 4
# Outline: as §1
Substance,"Array Heatmap signal, AIRE (PP) (AIRE (PP))","Array Heatmap signal, BAZ2B (BAZ2B)","Array Heatmap signal, BPTF (PB) (BPTF (PB))","Array Heatmap signal, CHD4 (PPCC) (CHD4 (PPCC))","Array Heatmap signal, CHD5 (PCC) (CHD5 (PCC))","Array Heatmap signal, CHD5 (PPCC) (CHD5 (PPCC))","Array Heatmap signal, DIDO1 (DIDO1)","Array Heatmap signal, DPF2 (PPC2W2) (DPF2 (PPC2W2))","Array Heatmap signal, ING1 (ING1)","Array Heatmap signal, ING2 (ING2)","Array Heatmap signal, ING3 (ING3)","Array Heatmap signal, ING4 (ING4)","Array Heatmap signal, ING5 (ING5)","Array Heatmap signal, KDM4C (TTP) (KDM4C (TTP))","Array Heatmap signal, KDM5A (1) (KDM5A (1))","Array Heatmap signal, KDM5A (3) (KDM5A (3))","Array Heatmap signal, KDM5B (1) (KDM5B (1))","Array Heatmap signal, KDM5B (3) (KDM5B (3))","Array Heatmap signal, KDM7A (KDM7A)","Array Heatmap signal, MLL5 (MLL5)",further results
H3.3K27me1: H3.3 15-34 [Peptide H3.3K27me1],0.5413,0.5147,0.3434,0.5655,0.7906,0.5646,0.5418,0.6219,0.4683,0.5862,0.4473,0.4785,0.3774,0.5409,0.5094,0.366,0.6832,0.4744,0.4745,0.5371,"Array Heatmap signal, MORC3 (CW) (MORC3 (CW)): 0.3133; Array Heatmap signal, PHF13 (PHF13): 0.6089; Array Heatmap signal, PHF21A (PHF21A): 0.4715; Array Heatmap signal, PHF23 (PHF23): 0.4768; Array Heatmap signal, PHF2 (PHF2): 0.3646; Array Heatmap signal, PHF8 (PHF8): 0.3072; Array Heatmap signal, PHRF1 (RP) (PHRF1 (RP)): 0.3762; Array Heatmap signal, RAG2 (RAG2): 0.2345; Array Heatmap signal, SP140L (SP140L): 0.3662; Array Heatmap signal, TAF3 (TAF3): 0.2716; Array Heatmap signal, TRIM66 (PB) (TRIM66 (PB)): 0.534"
H3.3K27me2 + S28p: H3.3 15-34,0.3996,0.4685,0.3515,0.6277,0.7282,0.5567,0.6639,0.6352,0.5375,0.6211,0.4796,0.4488,0.3515,0.4645,0.4568,0.4997,0.6269,0.4734,0.3322,0.548,"Array Heatmap signal, MORC3 (CW) (MORC3 (CW)): 0.3408; Array Heatmap signal, PHF13 (PHF13): 0.6326; Array Heatmap signal, PHF21A (PHF21A): 0.4472; Array Heatmap signal, PHF23 (PHF23): 0.5303; Array Heatmap signal, PHF2 (PHF2): 0.5406; Array Heatmap signal, PHF8 (PHF8): 0.3445; Array Heatmap signal, PHRF1 (RP) (PHRF1 (RP)): 0.4333; Array Heatmap signal, RAG2 (RAG2): 0.2608; Array Heatmap signal, SP140L (SP140L): 0.3521; Array Heatmap signal, TAF3 (TAF3): 0.2725; Array Heatmap signal, TRIM66 (PB) (TRIM66 (PB)): 0.5871"
H3.3K27me2: H3.3 15-34 [Peptide H3.3K27me2],0.5737,0.4966,0.3599,0.613,0.8298,0.607,0.6851,0.6895,0.5537,0.5964,0.5037,0.4872,0.3925,0.5464,0.5224,0.4717,0.6552,0.5196,0.388,0.5397,"Array Heatmap signal, MORC3 (CW) (MORC3 (CW)): 0.404; Array Heatmap signal, PHF13 (PHF13): 0.6291; Array Heatmap signal, PHF21A (PHF21A): 0.5329; Array Heatmap signal, PHF23 (PHF23): 0.5513; Array Heatmap signal, PHF2 (PHF2): 0.504; Array Heatmap signal, PHF8 (PHF8): 0.3923; Array Heatmap signal, PHRF1 (RP) (PHRF1 (RP)): 0.4654; Array Heatmap signal, RAG2 (RAG2): 0.2646; Array Heatmap signal, SP140L (SP140L): 0.3774; Array Heatmap signal, TAF3 (TAF3): 0.2764; Array Heatmap signal, TRIM66 (PB) (TRIM66 (PB)): 0.5739"
